MIC data for four molecules are collected here from US20230114728A1 (Venatorx Pharmaceuticals, Inc., priority 2019, published 2023).

≈ marks a conversion by molar mass, not a printed value.

Holding throughout (type): cell-based
The test system of one assay is N. gonorrhoeae WHO L. The assay can be described thus: Liquid broth MIC in Fastidious broth. The settings on record: Neisseria gonorrhoeae; N. gonorrhoeae strain WHO L; Fastidious broth; read-out: Minimum Inhibitory Concentration, N. gonorrhoeae WHO L. The procedure, abridged: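 Colonies were swabbed from chocolate agar after 24 h growth and standardised by optical density at 600 nm. Compounds were serially diluted twofold in Fastidious broth, and bacteria added to give 5×10^5 CFU/mL. After about 24 h at 36 °C in 5% CO2, the lowest concentration allowing under 10% growth was taken as MIC.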

For a further assay, the system named is E. coli ATCC 25922. The experiment in a line: Broth microdilution MIC in CAMHB. The settings on record: Escherichia coli, ATCC25922; E. coli ATCC 25922; MHB; read-out: Minimum Inhibitory Concentration, E. coli 25922. The method in brief:
(§1)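 Hyper-permeable or efflux-deficient strains serve to probe outer-membrane penetration. Growth inhibition is scored visually after 16-20 h at 37° C in CAMHB, starting from 2-8×10^5 CFU/mL.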
In general terms: Broth dilution looks for growth in wells or tubes with falling amounts of substance.

The subject of assay [1] is P. aeruginosa (ΔmexAB-oprM). The assay can be described thus: Broth microdilution MIC in CAMHB. As to conditions: Pseudomonas aeruginosa, read-out: Minimum Inhibitory Concentration, P. aeruginosa ΔmexAB-OprM. The method in brief:
as §1

For assay [2], the system named is K. pneumoniae SI-117 producing VIM-1. The experiment in a line: Broth microdilution MIC in CAMHB. As to conditions: Klebsiella pneumoniae, read-out: Minimum Inhibitory Concentration, K. pneumoniae SI-117. The method in brief: as §1
For assay [3], the system named is K. pneumoniae 848844 producing SHV-11 and KPC-2. The assay can be described thus: Broth microdilution MIC in CAMHB. The settings on record: Klebsiella pneumoniae, read-out: Minimum Inhibitory Concentration, K. pneumoniae 848844. The method in brief: as §1
The next assay relates to E. coli 901C. The assay can be described thus: Broth microdilution MIC in CAMHB. The settings on record: Escherichia coli; E. coli 901C (hyper-permeable); MHB; read-out: Minimum Inhibitory Concentration, E. coli 901C. The procedure, abridged: as §1
In the next assay the test system is P. aeruginosa ATCC 35151. The assay can be described thus: Broth microdilution MIC in CAMHB. The settings on record: Pseudomonas aeruginosa, ATCC35151; MHB; hyper-permeable strain; read-out: Minimum Inhibitory Concentration, P. aeruginosa ATCC 35151. The method in brief: as §1
The subject of the next assay is E. coli D22. The assay can be described thus: Broth microdilution MIC in CAMHB. As to conditions: Escherichia coli; E. coli D22 (hyper-permeable); MHB; read-out: Minimum Inhibitory Concentration, E. coli D22. The method in brief:
as §1

Assay [4] deals with K. pneumoniae UMM producing SHV-5 and KPC-2. The experiment in a line: Broth microdilution MIC in CAMHB. As to conditions: Klebsiella pneumoniae, read-out: Minimum Inhibitory Concentration, K. pneumoniae UMM. The procedure, abridged:
as §1

A further assay concerns P. aeruginosa ATCC 27853. The experiment in a line: Broth microdilution MIC in CAMHB. As to conditions: Pseudomonas aeruginosa, ATCC27853; MHB; read-out: Minimum Inhibitory Concentration, P. aeruginosa ATCC 27853. The procedure, abridged:
as §1

The test system of the next assay is A. baumannii ATCC 19606. The assay can be described thus: Broth microdilution MIC in CAMHB. As to conditions: Acinetobacter baumannii, ATCC19606; MHB; read-out: Minimum Inhibitory Concentration, A. baumannii ATCC 19606. The procedure, abridged:
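CLSI microdilution; CAMHB; inoculum 2-8×10^5 CFU/mL from 3-5 h 37° C culture; 2-fold compound series; 16-20 h, 37° C; MIC = lowest well without visible growth.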

The test system of a further assay is E. coli AG100A. The assay can be described thus: Broth microdilution MIC in CAMHB. The settings on record: Escherichia coli, read-out: Minimum Inhibitory Concentration, E. coli AG100A. The method in brief: as §1
A further assay relates to E. coli AG100. The assay can be described thus: Broth microdilution MIC in CAMHB. The settings on record: Escherichia coli; E. coli AG100 (wild-type parent); MHB; read-out: Minimum Inhibitory Concentration, E. coli AG100. The procedure, abridged:
as §1

With `CCN1CCN(C(=O)NC(C(=O)N[C@H]2Cc3cccc(C(=O)O)c3OB2O)c2c(F)c(F)c(O)c(F)c2F)C(=O)C1=O` (stereo partly drawn) [Example 175, (3R)-3-(2-(4-ethyl-2,3-dioxopiperazine-1-carboxamido)-2-(2,3,5,6-tetrafluoro-4-hydroxyphenyl)acetamido)-2-hydroxy-3,4-dihydro-2H-benzo[e][1,2]oxaborinine-8-carboxylic acid], the MIC in the assay with N. gonorrhoeae WHO L was 4 to 8 µg/mL (≈ 6.71 to 13.4 µM); in the assay with E. coli ATCC 25922, 32 to 64 µg/mL (≈ 53.7 to 107 µM); in assay [1], 8 to 16 µg/mL (≈ 13.4 to 26.8 µM); in [2], over 128 µg/mL; in [3], over 128 µg/mL; with E. coli 901C, under 0.25 µg/mL. The MIC with P. aeruginosa ATCC 35151 is 0.5 to 1 µg/mL (≈ 0.839 to 1.68 µM); in the assay on E. coli D22, 2 to 4 µg/mL (≈ 3.35 to 6.71 µM); in assay [4], 32 to 64 µg/mL (≈ 53.7 to 107 µM); in the assay on P. aeruginosa ATCC 27853, over 128 µg/mL; with A. baumannii ATCC 19606 it was 32 to 64 µg/mL (≈ 53.7 to 107 µM); in the assay with E. coli AG100A, 2 to 4 µg/mL (≈ 3.35 to 6.71 µM). Further, the MIC with E. coli AG100 fell in the range of 8 to 16 µg/mL (≈ 13.4 to 26.8 µM).

As to `CCN1CCN(C(=O)NC(C(=O)N[C@H]2Cc3cccc(C(=O)O)c3OB2O)c2c(F)cc(NS(N)(=O)=O)cc2F)C(=O)C1=O` (stereo partly drawn) [Example 176, (3R)-3-(2-(2,6-difluoro-4-(sulfamoylamino)phenyl)-2-(4-ethyl-2,3-dioxopiperazine-1-carboxamido)acetamido)-2-hydroxy-3,4-dihydro-2H-benzo[e][1,2]oxaborinine-8-carboxylic acid], the MIC in the assay with N. gonorrhoeae WHO L is over 64 µg/mL; in the assay on E. coli ATCC 25922 it was 32 to 64 µg/mL (≈ 50.1 to 100 µM); in [1], 32 to 64 µg/mL (≈ 50.1 to 100 µM); in assay [2], over 128 µg/mL; in assay [3] it was over 128 µg/mL; in the assay on E. coli 901C, under 0.25 µg/mL. Besides, the MIC in the assay with P. aeruginosa ATCC 35151 was 2 to 4 µg/mL (≈ 3.13 to 6.27 µM); in the assay with E. coli D22, 2 to 4 µg/mL (≈ 3.13 to 6.27 µM); in assay [4] it was 32 to 64 µg/mL (≈ 50.1 to 100 µM); with P. aeruginosa ATCC 27853 it was over 128 µg/mL; in the assay with A. baumannii ATCC 19606 it was over 128 µg/mL; in the assay on E. coli AG100A it was 2 to 4 µg/mL (≈ 3.13 to 6.27 µM). Further, in the assay with E. coli AG100, the MIC was in the range of 32 to 64 µg/mL (≈ 50.1 to 100 µM).

As to `NCCN1CCN(C(=O)NC(C(=O)N[C@H]2Cc3cccc(C(=O)O)c3OB2O)c2c(F)cc(NS(N)(=O)=O)cc2F)C(=O)C1=O` (stereo partly drawn) [Example 177, (3R)-3-(2-(4-(2-aminoethyl)-2,3-dioxopiperazine-1-carboxamido)-2-(2,6-difluoro-4-(sulfamoylamino)phenyl)acetamido)-2-hydroxy-3,4-dihydro-2H-benzo[e][1,2]oxaborinine-8-carboxylic acid], the MIC in the assay with N. gonorrhoeae WHO L is over 64 µg/mL; with E. coli ATCC 25922, over 128 µg/mL; in assay [1], 32 to 64 µg/mL (≈ 49 to 98 µM); in assay [2], over 128 µg/mL; in assay [3] it was over 128 µg/mL; with E. coli 901C, 2 to 4 µg/mL (≈ 3.06 to 6.12 µM). In addition, the MIC in the assay on P. aeruginosa ATCC 35151 is 2 to 4 µg/mL (≈ 3.06 to 6.12 µM); with E. coli D22 it was 32 to 64 µg/mL (≈ 49 to 98 µM); in [4] it was over 128 µg/mL; in the assay on P. aeruginosa ATCC 27853, over 128 µg/mL; in the assay with A. baumannii ATCC 19606, over 128 µg/mL; with E. coli AG100A it was 8 to 16 µg/mL (≈ 12.2 to 24.5 µM). For the same molecule, the MIC in the assay on E. coli AG100 was over 128 µg/mL.

On to `NCCCN1CCN(C(=O)NC(C(=O)N[C@H]2Cc3ccc(F)c(C(=O)O)c3OB2O)c2c(F)cc(O)cc2F)C(=O)C1=O` (stereo partly drawn) [Example 178, (3R)-3-(2-(4-(3-aminopropyl)-2,3-dioxopiperazine-1-carboxamido)-2-(2,6-difluoro-4-hydroxyphenyl)acetamido)-7-fluoro-2-hydroxy-3,4-dihydro-2H-benzo[e][1,2]oxaborinine-8-carboxylic acid], for which the MIC in the assay on N. gonorrhoeae WHO L is over 64 µg/mL; with E. coli ATCC 25922, 32 to 64 µg/mL (≈ 52.7 to 105 µM); in assay [1], 8 to 16 µg/mL (≈ 13.2 to 26.3 µM); in assay [2], 32 to 64 µg/mL (≈ 52.7 to 105 µM); in assay [3], 32 to 64 µg/mL (≈ 52.7 to 105 µM); in the assay with E. coli 901C, 2 to 4 µg/mL (≈ 3.29 to 6.59 µM). Besides, the MIC with P. aeruginosa ATCC 35151 was 0.5 to 1 µg/mL (≈ 0.823 to 1.65 µM); in the assay on E. coli D22, 2 to 4 µg/mL (≈ 3.29 to 6.59 µM); in assay [4], 8 to 16 µg/mL (≈ 13.2 to 26.3 µM); with P. aeruginosa ATCC 27853, over 128 µg/mL; with A. baumannii ATCC 19606 it was over 128 µg/mL; with E. coli AG100A, 8 to 16 µg/mL (≈ 13.2 to 26.3 µM). Besides, the MIC in the assay with E. coli AG100 lay within 8 to 16 µg/mL (≈ 13.2 to 26.3 µM).
